Measurements as given in the NIST ThermoML archive (doi:10.1016/j.fluid.2014.03.001).
Numbers after ± are expanded uncertainties.

Conditions: Crystal 1; DTA

Normal melting temperature | Compound
14.2 ± 0.5 °C | CCCCCCCCCCCCCC(=O)OCC [ethyl tetradecanoate]
-18.8 ± 0.7 °C | CCCCCCCC/C=C\CCCCCCCC(=O)OCC [ethyl (Z)-9-octadeceneoate]
34.7 ± 0.7 °C | CCCCCCCCCCCCCCCCCC(=O)OCC [ethyl octadecanoate]
